Experiments:
Format in all cases: in vivo
[1] = system: ragweed (common ragweed, Ambrosia elatior); assay: Test A postemergence application, visual injury rating; details: for Plant response rating (0 to 100 scale), Ragweed: 31 g ai/ha, 0 is no effect, 100 is complete control; for Ragweed plant response rating: 125 g ai/ha, 0 to 100 scale, 0 no effect, 100 complete control
Outline: (§1)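 Seeds sown in a loam soil–sand blend received a directed preemergence soil spray of test chemical in a non-phytotoxic solvent mixture with surfactant. Postemergence plants were sprayed at 2 to 10 cm, one- to two-leaf stage. After approximately 10 d in greenhouse, injury was visually rated 0 (no effect) to 100 (complete control) against untreated controls.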

[2] = system: foxtail, giant (giant foxtail, Setaria faberii); assay: as above; details: for Plant response rating (0 to 100 scale), Foxtail, Giant: 31 g ai/ha, 0 is no effect, 100 is complete control; for Foxtail, Giant plant response rating: 125 g ai/ha, 0 to 100 scale, 0 no effect, 100 complete control
Outline: as §1

[3] = system: ryegrass, It. (Italian ryegrass, Lolium multiflorum); assay: as above; details: for Plant response rating (0 to 100 scale), Ryegrass, It.: 31 g ai/ha, 0 is no effect, 100 is complete control; for Ryegrass, It. plant response rating: 125 g ai/ha, 0 to 100 scale, 0 no effect, 100 complete control
Outline: as §1

corn (Zea mays) = assay: as above; details: for Plant response rating (0 to 100 scale), Corn: 31 g ai/ha, 0 is no effect, 100 is complete control; for Corn plant response rating: 125 g ai/ha, 0 to 100 scale, 0 no effect, 100 complete control
Outline: as §1

[4] = system: blackgrass (Alopecurus myosuroides); assay: as above; details: 0 to 100 scale, 0 no effect, 100 complete control
Outline: as §1

[5] = system: pigweed (Amaranthus retroflexus); assay: as above; details: for Plant response rating (0 to 100 scale), Pigweed: 31 g ai/ha, 0 is no effect, 100 is complete control; for Pigweed plant response rating: 125 g ai/ha, 0 to 100 scale, 0 no effect, 100 complete control
Outline: as §1

[6] = system: wheat (Triticum aestivum); assay: as above; details: for Plant response rating (0 to 100 scale), Wheat: 31 g ai/ha, 0 is no effect, 100 is complete control; for Wheat plant response rating: 125 g ai/ha, 0 to 100 scale, 0 no effect, 100 complete control
Outline: as §1

[7] = system: barnyardgrass (Echinochloa crus-galli); assay: as above; details: 0 to 100 scale, 0 no effect, 100 complete control
Outline: as §1

kochia (Kochia scoparia) [8] = assay: as above; details: for Plant response rating (0 to 100 scale), Kochia: 31 g ai/ha, 0 is no effect, 100 is complete control; for Kochia plant response rating: 125 g ai/ha, 0 to 100 scale, 0 no effect, 100 complete control
Outline: as §1

[9] = system: galium (catchweed bedstraw, Galium aparine); assay: as above; details: for Plant response rating (0 to 100 scale), Galium: 31 g ai/ha, 0 is no effect, 100 is complete control; for Galium plant response rating: 125 g ai/ha, 0 to 100 scale, 0 no effect, 100 complete control
Outline: as §1

[10] = system: ragweed (common ragweed, Ambrosia elatior); assay: Test A preemergence, directed soil spray, visual injury rating; details: 0 is no effect, 100 is complete control
Outline: as §1

[11] = system: foxtail, giant (giant foxtail, Setaria faberii); assay: as above; details: 0 is no effect, 100 is complete control
Outline: as §1

[12] = system: ryegrass, It. (Italian ryegrass, Lolium multiflorum); assay: as above; details: 0 is no effect, 100 is complete control
Outline: as §1

[13] = system: pigweed (Amaranthus retroflexus); assay: as above; details: 0 is no effect, 100 is complete control
Outline: as §1

[14] = system: barnyardgrass (Echinochloa crus-galli); assay: as above; details: 0 is no effect, 100 is complete control
Outline: as §1

kochia (Kochia scoparia) [15] = assay: as above; details: 0 is no effect, 100 is complete control
Outline: as §1

[16] = system: sedge, umbrella (small-flower umbrella sedge, Cyperus difformis); assay: Test B flooded paddy test, visual rating; details: Flood, 250 g ai/ha, applied to paddy water, rated after 13 to 15 d
Outline: (§2)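 Plants at the 2-leaf stage were flooded to 3 cm above soil, and test compounds were applied directly into the paddy water, which was held at that depth throughout. After 13 to 15 d in a greenhouse, injury was rated visually against untreated controls on a 0–100 scale (0 no effect, 100 complete control).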

[17] = system: ducksalad (Heteranthera limosa); assay: Test B flooded paddy test, visual rating; details: Flood, 250 g ai/ha, applied to paddy water, rated after 13 to 15 d
Outline: as §2

[18] = system: barnyardgrass (Echinochloa crus-galli); assay: Test B flooded paddy test, visual rating; details: Flood, 250 g ai/ha, applied to paddy water, rated after 13 to 15 d
Outline: as §2

rice (Oryza sativa) = assay: Test B flooded paddy test, visual rating; details: Flood, 250 g ai/ha, applied to paddy water, rated after 13 to 15 d
Outline: as §2

Row | Structure (SMILES) | Plant response rating (0 to 100 scale), Ragweed [1] | Ragweed plant response rating [1] | Plant response rating (0 to 100 scale), Foxtail, Giant [2] | Foxtail, Giant plant response rating [2] | Plant response rating (0 to 100 scale), Ryegrass, It. [3] | Ryegrass, It. plant response rating [3] | Plant response rating (0 to 100 scale), Corn (corn (Zea mays)) | Corn plant response rating (corn (Zea mays)) | Blackgrass plant response rating ([4]; 31 g ai/ha) | Blackgrass plant response rating ([4]; 125 g ai/ha) | Plant response rating (0 to 100 scale), Pigweed [5] | Pigweed plant response rating [5] | Plant response rating (0 to 100 scale), Wheat [6] | Wheat plant response rating [6] | Barnyardgrass plant response rating ([7]; 31 g ai/ha) | Barnyardgrass plant response rating ([7]; 125 g ai/ha) | Plant response rating (0 to 100 scale), Kochia (kochia (Kochia scoparia) [8]) | Kochia plant response rating (kochia (Kochia scoparia) [8]) | Plant response rating (0 to 100 scale), Galium [9] | Galium plant response rating [9] | further results
1 | CC(=O)Oc1c(Cl)nn(C)c(=O)c1-c1nccc2ccccc12 [Compound 66] | 10 | 30 | 0 | 10 | 20 | 40 | 0 | 0 | 0 | 0 | 40 | 50 | 0 | 0 | 0 | 10 | 0 | 40 | 0 | 50 | Plant response rating (0 to 100 scale), Ragweed ([10]; 31 g ai/ha): 0; Plant response rating (0 to 100 scale), Ragweed ([10]; 125 g ai/ha): 0; Plant response rating (0 to 100 scale), Foxtail, Giant ([11]; 31 g ai/ha): 0; Plant response rating (0 to 100 scale), Foxtail, Giant ([11]; 125 g ai/ha): 0; Plant response rating (0 to 100 scale), Ryegrass, It. ([12]; 31 g ai/ha): 0; Plant response rating (0 to 100 scale), Ryegrass, It. ([12]; 125 g ai/ha): 50; Plant response rating (0 to 100 scale), Pigweed ([13]; 31 g ai/ha): 10; Plant response rating (0 to 100 scale), Pigweed ([13]; 125 g ai/ha): 20; Plant response rating (0 to 100 scale), Barnyardgrass ([14]; 31 g ai/ha): 0; Plant response rating (0 to 100 scale), Barnyardgrass ([14]; 125 g ai/ha): 0; Plant response rating (0 to 100 scale), Kochia (kochia (Kochia scoparia) [15]; 31 g ai/ha): 0; Plant response rating (0 to 100 scale), Kochia (kochia (Kochia scoparia) [15]; 125 g ai/ha): 0; Sedge, Umbrella plant response rating (0 to 100 scale, 0 is no effect, 100 is complete control) [16]: 0; Ducksalad plant response rating (0 to 100 scale, 0 is no effect, 100 is complete control) [17]: 0; Barnyardgrass plant response rating (0 to 100 scale, 0 is no effect, 100 is complete control) [18]: 0; Rice plant response rating (0 to 100 scale, 0 is no effect, 100 is complete control) (rice (Oryza sativa)): 0
2 | Cn1nc(Cl)c(O)c(-c2ccc(F)c3ccoc23)c1=O [Compound 70] | 10 | 90 | 10 | 40 | 70 | 100 | 0 | 0 | 0 | 30 | 10 | 70 | 0 | 0 | 10 | 90 | 40 | 90 | 50 | 90 | Plant response rating (0 to 100 scale), Ragweed ([10]; 31 g ai/ha): 0; Plant response rating (0 to 100 scale), Ragweed ([10]; 125 g ai/ha): 0; Plant response rating (0 to 100 scale), Foxtail, Giant ([11]; 31 g ai/ha): 10; Plant response rating (0 to 100 scale), Foxtail, Giant ([11]; 125 g ai/ha): 50; Plant response rating (0 to 100 scale), Ryegrass, It. ([12]; 31 g ai/ha): 70; Plant response rating (0 to 100 scale), Ryegrass, It. ([12]; 125 g ai/ha): 100; Plant response rating (0 to 100 scale), Pigweed ([13]; 31 g ai/ha): 10; Plant response rating (0 to 100 scale), Pigweed ([13]; 125 g ai/ha): 30; Plant response rating (0 to 100 scale), Barnyardgrass ([14]; 31 g ai/ha): 40; Plant response rating (0 to 100 scale), Barnyardgrass ([14]; 125 g ai/ha): 90; Plant response rating (0 to 100 scale), Kochia (kochia (Kochia scoparia) [15]; 31 g ai/ha): 0; Plant response rating (0 to 100 scale), Kochia (kochia (Kochia scoparia) [15]; 125 g ai/ha): 40; Sedge, Umbrella plant response rating (0 to 100 scale, 0 is no effect, 100 is complete control) [16]: 0; Ducksalad plant response rating (0 to 100 scale, 0 is no effect, 100 is complete control) [17]: 0; Barnyardgrass plant response rating (0 to 100 scale, 0 is no effect, 100 is complete control) [18]: 0; Rice plant response rating (0 to 100 scale, 0 is no effect, 100 is complete control) (rice (Oryza sativa)): 0
3 | Cc1cc2c(-c3c(O)c(C)nn(C)c3=O)c(C)ccc2s1 [Compound 72] | 70 | 90 | 30 | 60 | 90 | 100 | 0 | 0 | 40 | 80 | 90 | 90 | 0 | 0 | 30 | 40 | 70 | 90 | 90 | 100 | Plant response rating (0 to 100 scale), Ragweed ([10]; 31 g ai/ha): 70; Plant response rating (0 to 100 scale), Ragweed ([10]; 125 g ai/ha): 90; Plant response rating (0 to 100 scale), Foxtail, Giant ([11]; 31 g ai/ha): 0; Plant response rating (0 to 100 scale), Foxtail, Giant ([11]; 125 g ai/ha): 40; Plant response rating (0 to 100 scale), Ryegrass, It. ([12]; 31 g ai/ha): 90; Plant response rating (0 to 100 scale), Ryegrass, It. ([12]; 125 g ai/ha): 100; Plant response rating (0 to 100 scale), Pigweed ([13]; 31 g ai/ha): 70; Plant response rating (0 to 100 scale), Pigweed ([13]; 125 g ai/ha): 70; Plant response rating (0 to 100 scale), Barnyardgrass ([14]; 31 g ai/ha): 0; Plant response rating (0 to 100 scale), Barnyardgrass ([14]; 125 g ai/ha): 30; Plant response rating (0 to 100 scale), Kochia (kochia (Kochia scoparia) [15]; 31 g ai/ha): 0; Plant response rating (0 to 100 scale), Kochia (kochia (Kochia scoparia) [15]; 125 g ai/ha): 40; Sedge, Umbrella plant response rating (0 to 100 scale, 0 is no effect, 100 is complete control) [16]: 0; Ducksalad plant response rating (0 to 100 scale, 0 is no effect, 100 is complete control) [17]: 0; Barnyardgrass plant response rating (0 to 100 scale, 0 is no effect, 100 is complete control) [18]: 0; Rice plant response rating (0 to 100 scale, 0 is no effect, 100 is complete control) (rice (Oryza sativa)): 0

Reference: patent US10750743B2, “Pyridazinone herbicides” (E.I. DU PONT DE NEMOURS AND COMPANY, priority 2015, dated 2020)
